According to paper PMC4216168, “Ligand Binding and Activation of PPARγ by Firemaster® 550: Effects on Adipogenesis and Osteogenesis in Vitro” (Environmental Health Perspectives, 2014):
Where two headings read alike, the source gives them in different places.

Assays:
[1] = biological target: T1, human recombinant PPARγ ligand binding domain (LBD) (Homo sapiens, UniProt P37231); assay: biochemical; conditions: for binding to PPARγ LBD: over the concentration range tested (TBB 0.009–90 μM, TBPH 0.12–1,200 μM)
T1 construct: purchased Invitrogen
T1 sequence (P37231 238-503 limits assumed): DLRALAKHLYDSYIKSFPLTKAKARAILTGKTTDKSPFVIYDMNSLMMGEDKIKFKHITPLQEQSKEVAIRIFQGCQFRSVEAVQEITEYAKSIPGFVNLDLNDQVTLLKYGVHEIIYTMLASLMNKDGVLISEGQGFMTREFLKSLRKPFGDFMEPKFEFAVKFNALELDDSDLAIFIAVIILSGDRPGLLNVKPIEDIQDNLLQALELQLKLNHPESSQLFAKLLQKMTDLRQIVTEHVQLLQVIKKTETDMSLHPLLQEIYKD
Method: PPARγ ligand binding assay. Human PPARγ binding was quantified using the PolarScreen^TM PPARγ-Competitor Assay Kit (Invitrogen, Carlsbad, CA), according to the manufacturer’s instructions. […] Displacement of the fluorescent ligand, which has high polarization when bound to the PPARγ-LBD and low polarization when not bound, was assessed by measuring loss of fluorescence polarization using a SpectraMax M5 plate reader (Molecular Devices, Sunnyvale, CA). We calculated the IC50 (concentration required to reduce effect by 50%) and dissociation constants to compare the potency of the binding. Dissociation constants were calculated according to the following equation:
IC50/[PPARγ green] = Kd,ligand/Kd,probe,
where Kd,probe is the dissociation constant calculated from titration of 1.25 nM Fluormone™ PPARγ green with the PPARγ LBD.

[2] = set-up: method as in Patisaul et al. 2013; Roberts et al. 2012; conditions: in vivo and in vitro; ref Patisaul et al. 2013; Roberts et al. 2012; cited from earlier work
human PPARγ1 = human PPARγ1 (Homo sapiens, UniProt P37231); assay: PPRE-luciferase reporter assay in Cos-7 cells transfected with human PPARG1 and RXRA; assay type: cell-based
Description: Reporter assays. Cos-7 cells were transiently transfected with vectors containing human PPARG1 (provided by V.K. Chatterjee, University of Cambridge, Cambridge, UK) ([Gurnell et al. 2000]) and human RXRA (plasmid 8882; Addgene, Cambridge, MA) ([Tontonoz et al. 1994]), with PPRE x3-TK-luc (plasmid 1015; Addgene) ([Kim et al. 1998]) and CMV-eGFP reporter constructs using Lipofectamine2000 (Invitrogen). Cultures were cotransfected with either pcDNA3 (Invitrogen) or dominant negative human PPARG (PPARγ-DN; provided by V.K. Chatterjee). […] After 24 hr incubation, cells were lysed in Glo Lysis Buffer and mixed with Bright Glo reagent (both from Promega, Madison, WI). […] Luminescence was normalized by GFP (green fluorescent protein) fluorescence in the same well. The normalized luminescence for each well was then divided by the normalized luminescence measured in control DN-PPARγ–transfected wells to determine the fold-change from DN-control.

BMS2 cells [3] = conditions: 12 days; as high as 10 μg/mL (20 μM) FM550 or 20 μM TPP
Method: (§1) Cell viability assays. […] Apoptosis and necrosis were assessed by caspase-3 activity (Caspase-Glo® 3/7 Assay; Promega) and dead cell protease release (CytoTox-Glo™ Cytotoxicity Assay; Promega), respectively, according to the manufacturer’s instructions.

BMS2 cells [4] = assay: Necrosis by dead cell protease release (CytoTox-Glo) in BMS2 cultures; conditions: 12 days; as high as 10 μg/mL (20 μM) FM550 or 20 μM TPP
Method: as §1

[5] = test system: Fabp4 mRNA in primary mouse bone marrow cultures; assay: Fabp4 mRNA expression (qPCR) in primary bone marrow cultures; assay type: cell-based; conditions: 7 days
Method: (§2) mRNA expression. Total RNA was extracted, and genomic DNA was removed using the RNeasy Plus Mini Kit (QIAGEN, Valencia, CA). cDNA was prepared from total RNA using the GoScript™ Reverse Transcription System (Promega). All quantitative reverse-transcription polymerase chain reaction (qPCR) was performed using the GoTaq® qPCR Master Mix System (Promega). The following validated primers were purchased from Qiagen: 18s ribosomal RNA (Rn18s; QT01036875), fatty acid binding protein 4 (Fabp4; QT00091532), Sp7 transcription factor 7 [Osterix (Sp7; QT00293181)]. qPCR was performed using a 7500 Fast Real-Time PCR System (Applied Biosystems, Carlsbad, CA). Relative gene expression was determined according to the Pfaffl method ([Pfaffl 2001]), with the threshold value for Rn18s used for normalization. […] The quantification cycle value from naive, undifferentiated cultures prepared from 9-week-old male mice was used as the reference point. Data are reported as fold difference from naive.

[6] = test system: Sp7 mRNA in primary mouse bone marrow cultures; assay: Sp7 (Osterix) mRNA expression (qPCR) in primary bone marrow cultures; assay type: cell-based; conditions: 7 days
Method: as §2

BMS2 cells [7] = test system: BMS2 cells
[8] = test system: constitutive androstane receptor; set-up: method as in earlier work; conditions: ref Honkakoski et al. 2004; Kojima et al. 2013; Suzuki et al. 2013; cited from earlier work
pregnane X receptor = test system: pregnane X receptor; set-up: method as in earlier work; conditions: ref Honkakoski et al. 2004; Kojima et al. 2013; Suzuki et al. 2013; cited from earlier work
estrogen receptor = test system: estrogen receptor; set-up: method as in earlier work; conditions: ref Honkakoski et al. 2004; Kojima et al. 2013; Suzuki et al. 2013; cited from earlier work
progesterone receptor = test system: progesterone receptor; set-up: method as in earlier work; conditions: ref Honkakoski et al. 2004; Kojima et al. 2013; Suzuki et al. 2013; cited from earlier work
glucocorticoid receptor = test system: glucocorticoid receptor; set-up: method as in earlier work; conditions: ref Honkakoski et al. 2004; Kojima et al. 2013; Suzuki et al. 2013; cited from earlier work
BMS2 cells [9] = assay: Lipid accumulation (Nile red) in BMS2 cells
[10] = test system: perilipin expression in BMS2 cells; assay: Perilipin protein expression (immunoblot) in BMS2 cells; conditions: BMS2, 7 days
[11] = test system: primary mouse bone marrow cultures; assay: Alkaline phosphatase activity in primary bone marrow cultures; conditions: 12 days; FM550 at 5 μg/mL (10 μM)
[12] = test system: primary mouse bone marrow cultures; assay: Mineralization (Alizarin red) in primary bone marrow cultures; conditions: 12 days; FM550 at 5 μg/mL (10 μM)
[13] = test system: primary mouse bone marrow cultures; assay: Lipid accumulation (Nile red) in primary bone marrow cultures under osteogenic induction; conditions: 12 days, molar value of FM550 estimated
NIH 3T3L1 cells = test system: NIH 3T3L1 cells; set-up: method as in Springer et al. 2012; conditions: ref Springer et al. 2012; cited from earlier work
PPARα = test system: PPARα; set-up: method as in Springer et al. 2012; conditions: in vitro; ref Springer et al. 2012; cited from earlier work
PPARγ = test system: PPARγ; set-up: method as in Springer et al. 2012; conditions: in vitro; ref Springer et al. 2012; cited from earlier work

Chain of human PPARγ1 (P19793 whole entry): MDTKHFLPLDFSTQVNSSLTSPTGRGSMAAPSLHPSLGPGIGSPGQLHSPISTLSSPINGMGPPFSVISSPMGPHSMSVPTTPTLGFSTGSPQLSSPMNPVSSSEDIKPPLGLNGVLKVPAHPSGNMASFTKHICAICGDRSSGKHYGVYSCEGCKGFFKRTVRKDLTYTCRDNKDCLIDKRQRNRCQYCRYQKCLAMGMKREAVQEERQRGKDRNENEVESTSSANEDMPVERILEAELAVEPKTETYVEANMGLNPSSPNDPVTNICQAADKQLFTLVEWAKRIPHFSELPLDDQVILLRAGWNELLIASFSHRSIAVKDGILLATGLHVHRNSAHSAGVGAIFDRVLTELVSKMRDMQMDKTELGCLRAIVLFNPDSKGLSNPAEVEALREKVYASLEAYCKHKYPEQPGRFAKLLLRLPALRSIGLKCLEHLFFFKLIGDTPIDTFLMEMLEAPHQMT
Chain of human PPARγ1 (P37231 29-505): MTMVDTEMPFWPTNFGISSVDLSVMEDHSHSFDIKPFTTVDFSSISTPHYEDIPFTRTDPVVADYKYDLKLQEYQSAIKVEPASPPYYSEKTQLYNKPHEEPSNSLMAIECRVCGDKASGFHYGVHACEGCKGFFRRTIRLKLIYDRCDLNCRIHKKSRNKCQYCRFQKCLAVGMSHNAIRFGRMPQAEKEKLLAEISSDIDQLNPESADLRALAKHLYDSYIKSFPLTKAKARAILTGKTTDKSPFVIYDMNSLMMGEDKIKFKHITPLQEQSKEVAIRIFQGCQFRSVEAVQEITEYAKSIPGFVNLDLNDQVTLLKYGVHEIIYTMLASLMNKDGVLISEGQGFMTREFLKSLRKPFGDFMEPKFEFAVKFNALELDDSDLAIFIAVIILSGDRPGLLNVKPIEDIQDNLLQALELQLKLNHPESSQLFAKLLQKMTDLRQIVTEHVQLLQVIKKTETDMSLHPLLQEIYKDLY

CCCCC(CC)COC(=O)c1cc(Br)c(Br)c(Br)c1Br (centres unmarked) [TBB, tetrabromobenzoate]
binding to PPARγ LBD [1]: did not demonstrate any binding

CCCCC(CC)COC(=O)c1c(Br)c(Br)c(Br)c(Br)c1C(=O)OCC(CC)CCCC (centres unmarked) [TBPH, bis-(2-ethylhexyl) tetrabromophthalate]
binding to PPARγ LBD [1]: did not demonstrate any binding
metabolism into the monoester [2]: minimally metabolized into the monoester

O=P(Oc1ccccc1)(Oc1ccccc1)Oc1ccccc1 [TPP, triphenyl phosphate]
IC50 [1]: 38 µM
Kd [1]: 20 µM
EC50 (human PPARγ1): 8 µM
concentrations significantly inducing PPARγ-driven reporter activity (human PPARγ1; Cos7, 24 hr, molar values of FM550 and ITP estimated): ≥ 10 µM
maximal PPARγ-driven reporter activity (human PPARγ1; fold-change from DN-control, 24 hr, rosiglitazone at 1 μM): 7.5 ± 0.7 fold
caspase-3 activity (BMS2 cells [3]): no increase in caspase-3 activity
necrotic protein release (BMS2 cells [4]): no increase in necrotic protein release
Fabp4 mRNA expression [5]: significantly increased mRNA expression of Fabp4
Sp7 mRNA expression [6]: significant decrease in mRNA expression of Sp7
cellularity (MTT) (BMS2 cells [7]; 24 hr, as high as 40 μg/mL (90 μM) FM550, 40 μM TPP, 40 μg/mL (100 μM) ITP): no loss of cellularity
cellularity (MTT) (BMS2 cells [7]; 7 days, as high as 20 μg/mL (50 μM) FM550, 20 μM TPP, 10 μg/mL (30 μM) ITP): no loss of cellularity
cellularity (MTT) (BMS2 cells [7]; 12 days, as high as 10 μg/mL (20 μM) FM550 or 20 μM TPP): no loss of cellularity
constitutive androstane receptor–mediated reporter activity [8]: activating
pregnane X receptor–mediated reporter activity (pregnane X receptor): activating
estrogen receptor–mediated reporter activity (estrogen receptor): activating
progesterone receptor–mediated reporter activity (progesterone receptor): antagonizing
glucocorticoid receptor–mediated reporter activity (glucocorticoid receptor): antagonizing
maximal lipid accumulation (BMS2 cells [9]; 7 days, naive-corrected, rosiglitazone at 1 μM): 614 ± 60 RFUs
concentrations significantly inducing lipid accumulation (BMS2 cells [9]; BMS2, 7 days, molar values of FM550 and ITP estimated): ≥ 5 µM
perilipin expression [10]: induced the expression of perilipin
alkaline phosphatase activity [11]: significantly suppressed
mineralization [12]: significantly suppressed only alkaline phosphatase activity
concentration inducing lipid accumulation [13]: 10 µM

CCCCC(CC)COC(=O)c1c(Br)c(Br)c(Br)c(Br)c1C(=O)O (centres unmarked) [mono-(2-ethylhexyl) tetrabromophthalate]
adipocyte differentiation (NIH 3T3L1 cells): induced adipocyte differentiation
PPARα-mediated gene transcription (PPARα): activated
PPARγ-mediated gene transcription (PPARγ): activated
